How the values were obtained:
surinam grass = assay: Test B pre/postemergence surinam grass; assay type: in vivo, Brachiaria decumbens
Method in brief: (§1)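 Herbicidal effect was estimated by eye on a ten-point control scale after plants spent twelve to sixteen days in a greenhouse following soil or foliar treatment. Foliar sprays targeted plants at one to four leaves; all doses were formulated in a non-phytotoxic solvent with surfactant.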

sugar beet = assay: Test B pre/postemergence sugar beet; assay type: in vivo, Beta vulgaris
Method in brief: as §1

rape = assay: Test B pre/postemergence rape; assay type: in vivo, Brassica napus
Method in brief: as §1

soybean = assay: Test B pre/postemergence soybean; assay type: in vivo, Glycine max
Method in brief: as §1

smallflower flatsedge = assay: Test B flood test smallflower flatsedge; assay type: in vivo, Cyperus difformis
Method in brief: (§2)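 Each value is a visual injury score relative to controls, with 10 meaning complete control and 0 no effect. Evaluation took place twelve to sixteen days after the 2-leaf-stage plants were treated and kept in the greenhouse.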

bamyardgrass = assay: Test B flood test barnyardgrass; assay type: in vivo, Echinochloa crus-galli
Method in brief: as §2

crabgrass = assay: Test B pre/postemergence crabgrass; assay type: in vivo, Digitaria sanguinalis
Method in brief: as §1

purple nutsedge = assay: Test B pre/postemergence purple nutsedge; assay type: in vivo, Cyperus rotundus
Method in brief: as §1

corn = assay: Test B pre/postemergence corn; assay type: in vivo, Zea mays
Method in brief: as §1

bedstraw = assay: Test B pre/postemergence bedstraw; assay type: in vivo, Galium aparine
Method in brief: as §1

giant foxtail = assay: Test B pre/postemergence giant foxtail; assay type: in vivo, Setaria faberii
Method in brief: as §1

rice = assay: Test B flood test rice; assay type: in vivo, Oryza sativa
Method in brief: as §2

blackgrass = assay: Test B pre/postemergence blackgrass; assay type: in vivo, Alopecurus myosuroides
Method in brief: as §1

wheat = assay: Test B pre/postemergence wheat; assay type: in vivo, Triticum aestivum
Method in brief: as §1

duck salad = assay: Test B flood test duck salad; assay type: in vivo, Heteranthera limosa
Method in brief: as §2

velvetleaf = assay: Test B pre/postemergence velvetleaf; assay type: in vivo, Abutilon theophrasti
Method in brief: as §1

cocklebur = assay: Test B pre/postemergence cocklebur; assay type: in vivo, Xanthium strumarium
Method in brief: as §1

[1] = Preemergence, Rate 62 g/ha, scale of 0 to 10 where 0 is no effect and 10 is complete control
[2] = Preemergence, Rate 250 g/ha, scale of 0 to 10 where 0 is no effect and 10 is complete control
[3] = Preemergence, Rate 500 g/ha, scale of 0 to 10 where 0 is no effect and 10 is complete control
[4] = Rate 62 g/ha, Postemergence, scale of 0 to 10 where 0 is no effect and 10 is complete control
[5] = Rate 125 g/ha, Postemergence, scale of 0 to 10 where 0 is no effect and 10 is complete control
[6] = Rate 125 g/ha, Preemergence, scale of 0 to 10 where 0 is no effect and 10 is complete control
[7] = Rate 250 g/ha, Postemergence, scale of 0 to 10 where 0 is no effect and 10 is complete control
[8] = Rate 500 g/ha, Postemergence, scale 0 to 10, 0 no effect, 10 complete control
[9] = Rate 62 g/ha, headed Pre-emergence (flood test species), scale 0 to 10 (0 no effect, 10 complete control)
[10] = Rate 125 g/ha, Pre-emergence, flood test species, scale 0 to 10 where 0 is no effect and 10 is complete control
[11] = Rate 250 g/ha, Pre-emergence, flood-test species, scale 0 to 10, 0 is no effect, 10 is complete control
[12] = Rate 500 g/ha, Pre-emergence, flood test species, scale 0 to 10 (0 no effect, 10 complete control)

## Cc1cccc(C)c1-n1c(=O)on(C(=O)N(C(C)C)C2C=CCCC2)c1=O (stereo not drawn) [Compound 273]
Surinam grass; [1]
  B. signalgrass plant response rating: 0
Surinam grass; [2]
  B. signalgrass plant response rating: 2
Surinam grass; [3]
  Plant response rating, B. signalgrass: 3
Surinam grass; [4]
  B. signalgrass plant response rating: 0
Surinam grass; [5]
  B. signalgrass plant response rating: 0
Surinam grass; [6]
  B. signalgrass plant response rating: 0
Surinam grass; [7]
  Plant response rating, B. signalgrass: 0
Surinam grass; [8]
  B. signalgrass plant response rating: 0
Sugar beet; [1]
  Sugarbeets plant response rating: 0
Sugar beet; [2]
  Sugarbeets plant response rating: 6
Sugar beet; [3]
  Plant response rating, Sugarbeets: 7
Sugar beet; [5]
  Sugarbeets plant response rating: 0
Sugar beet; [6]
  Sugarbeets plant response rating: 0
Sugar beet; [7]
  Plant response rating, Sugarbeets: 0
Sugar beet; [8]
  Sugarbeets plant response rating: 0
rape; [1]
  Rape plant response rating: 0
rape; [2]
  Rape plant response rating: 0
rape; [3]
  Plant response rating, Rape: 0
rape; [5]
  Rape plant response rating: 0
rape; [6]
  Rape plant response rating: 0
rape; [7]
  Plant response rating, Rape: 0
rape; [8]
  Rape plant response rating: 0
soybean; [1]
  Soybean plant response rating: 0
soybean; [2]
  Soybean plant response rating: 0
soybean; [3]
  Plant response rating, Soybean: 0
soybean; [5]
  Soybean plant response rating: 3
soybean; [6]
  Soybean plant response rating: 0
soybean; [7]
  Plant response rating, Soybean: 3
soybean; [8]
  Soybean plant response rating: 4
Smallflower flatsedge; [9]
  S. Flatsedge plant response rating: 0
Smallflower flatsedge; [10]
  S. Flatsedge plant response rating: 0
Smallflower flatsedge; [11]
  S. Flatsedge plant response rating: 0
Smallflower flatsedge; [12]
  S. Flatsedge plant response rating: 0
bamyardgrass; [9]
  Barnyardgrass plant response rating: 0
bamyardgrass; [10]
  Barnyardgrass plant response rating: 4
bamyardgrass; [11]
  Barnyardgrass plant response rating: 4
bamyardgrass; [12]
  Barnyardgrass plant response rating: 3
crabgrass; [1]
  Crabgrass plant response rating: 2
crabgrass; [2]
  Crabgrass plant response rating: 6
crabgrass; [3]
  Plant response rating, Crabgrass: 9
crabgrass; [5]
  Crabgrass plant response rating: 0
crabgrass; [6]
  Crabgrass plant response rating: 6
crabgrass; [7]
  Plant response rating, Crabgrass: 1
crabgrass; [8]
  Crabgrass plant response rating: 3
Purple nutsedge; [2]
  Nutsedge plant response rating: 0
Purple nutsedge; [3]
  Plant response rating, Nutsedge: 0
Purple nutsedge; [5]
  Nutsedge plant response rating: 0
Purple nutsedge; [7]
  Plant response rating, Nutsedge: 0
Purple nutsedge; [8]
  Nutsedge plant response rating: 0
corn; [1]
  Corn plant response rating: 0
corn; [2]
  Corn plant response rating: 0
corn; [3]
  Plant response rating, Corn: 0
corn; [4]
  Corn plant response rating: 0
corn; [5]
  Corn plant response rating: 0
corn; [6]
  Corn plant response rating: 0
corn; [7]
  Plant response rating, Corn: 0
corn; [8]
  Corn plant response rating: 0
bedstraw; [1]
  Bedstraw plant response rating: 0
bedstraw; [2]
  Bedstraw plant response rating: 0
bedstraw; [4]
  Bedstraw plant response rating: 0
bedstraw; [5]
  Bedstraw plant response rating: 0
bedstraw; [6]
  Bedstraw plant response rating: 0
bedstraw; [7]
  Plant response rating, Bedstraw: 0
bedstraw; [8]
  Bedstraw plant response rating: 0
Giant foxtail; [1]
  Giant foxtail plant response rating: 7
Giant foxtail; [2]
  Giant foxtail plant response rating: 8
Giant foxtail; [3]
  Plant response rating, Giant foxtail: 9
Giant foxtail; [5]
  Giant foxtail plant response rating: 0
Giant foxtail; [6]
  Giant foxtail plant response rating: 8
Giant foxtail; [7]
  Plant response rating, Giant foxtail: 0
Giant foxtail; [8]
  Giant foxtail plant response rating: 2
rice; [9]
  Rice plant response rating: 0
rice; [10]
  Rice plant response rating: 0
rice; [11]
  Rice plant response rating: 0
rice; [12]
  Rice plant response rating: 0
blackgrass; [1]
  Blackgrass plant response rating: 0
blackgrass; [3]
  Plant response rating, Blackgrass: 0
blackgrass; [4]
  Blackgrass plant response rating: 0
blackgrass; [5]
  Blackgrass plant response rating: 1
blackgrass; [6]
  Blackgrass plant response rating: 0
blackgrass; [7]
  Plant response rating, Blackgrass: 2
blackgrass; [8]
  Blackgrass plant response rating: 4
wheat; [1]
  Wheat plant response rating: 0
wheat; [2]
  Wheat plant response rating: 0
wheat; [3]
  Plant response rating, Wheat: 0
wheat; [5]
  Wheat plant response rating: 0
wheat; [6]
  Wheat plant response rating: 0
wheat; [7]
  Plant response rating, Wheat: 0
wheat; [8]
  Wheat plant response rating: 0
Duck salad; [9]
  Ducksalad plant response rating: 0
Duck salad; [10]
  Ducksalad plant response rating: 0
Duck salad; [11]
  Ducksalad plant response rating: 0
Duck salad; [12]
  Ducksalad plant response rating: 0
velvetleaf; [1]
  Velvetleaf plant response rating: 0
velvetleaf; [2]
  Velvetleaf plant response rating: 0
velvetleaf; [3]
  Plant response rating, Velvetleaf: 1
velvetleaf; [5]
  Velvetleaf plant response rating: 0
velvetleaf; [6]
  Velvetleaf plant response rating: 0
velvetleaf; [7]
  Plant response rating, Velvetleaf: 0
velvetleaf; [8]
  Velvetleaf plant response rating: 2
cocklebur; [1]
  Cocklebur plant response rating: 0
cocklebur; [2]
  Cocklebur plant response rating: 0
cocklebur; [3]
  Plant response rating, Cocklebur: 0
cocklebur; [4]
  Cocklebur plant response rating: 0
cocklebur; [5]
  Cocklebur plant response rating: 0
cocklebur; [6]
  Cocklebur plant response rating: 0
cocklebur; [7]
  Plant response rating, Cocklebur: 0
cocklebur; [8]
  Cocklebur plant response rating: 0

Source: patent US6737383B1, “Herbicidal oxadiazolidines” (priority 1999, dated 2004)
